Where a SMILES comes first, the peptide text is derived from it.
Tests used:
[1] = Solubility in aqueous buffer; assay type: physicochemical; conditions: pH 7.2, aqueous buffer
[2] = Stability of the maleimide moiety of MAL-FMS-NHS in aqueous solutions (GSH/DTNB); assay type: physicochemical
Description: MAL-FMS-NHS (1 mM) was incubated at room temperature in H2O (pH 6.0), in 0.007 M acetic acid (pH˜4.0), in 0.1 M phosphate buffer (pH 7.4), and in 0.1 M NaHCO3 (pH 8.5). At the indicated time points, aliquots were allowed to react with a slight excess of GSH (15 min at pH 7.2) and the concentration of unreacted GSH was determined with 5,5-dithiobis(2-nitrobenzoic acid) (DTNB).
Stability of the MAL-functional moiety in aqueous solutions. In order to test the stability of the maleimide function of MAL-FMS-NHS in aqueous solutions at different pH values, MAL-FMS-NHS (1 mM) was incubated at room temperature in water (pH 6.0), in 0.007M acetic acid (pH˜4.0), in 0.1M phosphate buffer (pH 7.4), and in 0.1M NaHCO3 (pH 8.5). At several time points, aliquots were allowed to react with a slight excess of reduced glutathione (GSH) (15 min at pH 7.2) and the concentration of unreacted GSH was determined with DTNB (5,5′-dithio-bis-2-nitrobenzoic acid, Ellman's reagent), by measuring the absorbance of the produced yellow colored 5-thio-2-nitrobenzoic acid (TNB) at 405 or 412 nm.

physchem = conditions: buffer, pH 8.5

solubility [1] [µg/mL]	half-life at 1 mM ([2]; 0.1 M NaHCO3 aqueous solution, 0.1M NaHCO3 pH 8.5, room temperature, read-out: t1/2 of destruction of the maleimide moiety (converted)) [h]	stability of the maleimide function ([2]; pH 4 to 6, over a day or two)	stability of the maleimide function ([2]; pH 7.2)	SMILES	half-life (physchem) [h]
> 10000	2.7 ± 0.3	fully stable	stable over a period of several hours	O=C(CCN1C(=O)C=CC1=O)Nc1ccc2c(c1)C(COC(=O)ON1C(=O)CCC1=O)c1cc(S(=O)(=O)O)ccc1-2 (centres unmarked) [MAL-FMS-NHS, N-[2-(maleimido-propionylamino)-7-sulfo-fluoren-9-yl-methoxycarbonyloxy]-succinimide]	–
–	–	–	–	CC[C@H](C)[C@H](NC(=O)[C@H](CCC(=O)O)NC(=O)[C@H](C)NC(=O)OCC1c2cc(NC(=O)CCN3C(=O)C=CC3=O)ccc2-c2ccc(S(=O)(=O)O)cc21)C(=O)N[C@@H](CO)C(=O)NCC(=O)N[C@@H](CCC(N)=O)C(=O)N[C@@H](CC(C)C)C(=O)N[C@@H](CO)C(=O)N[C@@H](Cc1ccc(O)cc1)C(=O)N[C@H](C(=O)N[C@@H](CCCNC(=N)N)C(=O)N[C@@H](CC(=O)O)C(=O)N[C@H](C(=O)N[C@@H](CC(N)=O)C(=O)N[C@@H](CO)C(=O)N[C@@H](Cc1c[nH]c2ccccc12)C(=O)N[C@@H](CCC(N)=O)C(=O)N[C@@H](Cc1c[nH]cn1)C(=O)N[C@H](C(=O)N[C@@H](Cc1c[nH]c2ccccc12)C(=O)N[C@H](C(=O)N[C@@H](CC(N)=O)C(=O)N[C@H](C(=O)N[C@@H](CO)C(=O)N[C@H](C(=O)N[C@@H](CCC(=O)O)C(=O)N[C@@H](CC(N)=O)C(=O)O)[C@@H](C)CC)C(C)C)[C@@H](C)O)[C@@H](C)CC)C(C)C)C(C)C (some centres unmarked) [Mal-FMS-Peptide 27] (HELM PEPTIDE1{[O=C1C=CC(=O)N1CCC(=O)[*:2]].[O=C(OCC1c2cc(N[*:1])ccc2-c2ccc(S(=O)(=O)O)cc21)[*:2]].A.E.I.S.G.Q.L.S.Y.V.R.D.V.N.S.W.Q.H.I.W.T.N.V.S.I.E.N}$$$$V2.0; N-terminus and C-terminus assumed)	8.4

— patent US9433683B2, “Reversible pegylated drugs” (Yeda Research and Development Co., Ltd., priority 2003, dated 2016)
